Laboratory results: US20250213579A1, “COMBINATION THERAPIES” (MIRATI THERAPEUTICS, INC., priority 2018, published 2025)
Read-outs that look alike come from different tables or passages of the source.

Tested on: H2122 cells
Conditions: H2122 tumors, nude/nude mice, Compound 478 100 mg/kg and/or Dasatinib 50 mg/kg p.o. daily
Method: Immunocompromised nude/nude mice were inoculated in the right hind flank with cells or patient derived tumor samples harboring a KRas G12C mutation. When tumor volumes reached between 200-400 mm^3 in size, the mice were divided into four groups of 5-12 mice each. The first group was administered vehicle only. […] The fourth group was administered the single agent dose of the KRas G12C inhibitor in combination with the single agent dose of the Src-family kinase inhibitor. […] Tumor volumes were measured using a caliper every two-three days and tumor volumes were calculated by the formula: 0.5×(Length×Width)^2.
Tumor volumes were measured at pre-specified days set forth below.

Cc1nc(Nc2ncc(C(=O)Nc3c(C)cccc3Cl)s2)cc(N2CCN(CCO)CC2)n1 [Dasatinib, N-(2-chloro-6-methylphenyl)-2-((6-(4-(2-hydroxyethyl)piperazin-1-yl)-2-methylpyrimidin-4-yl)amino)thiazole-5-carboxamide]
Average Tumor Volumes (Day 11 from inoculation (start of dosing)): 324 mm^3 | Average Tumor Volumes (Day 13 from inoculation): 492 mm^3 | Average Tumor Volumes (Day 15 from inoculation): 596 mm^3 | Average Tumor Volumes (Day 18 from inoculation): 820 mm^3 | tumor growth inhibition (Day 20 (Treatment Day 9)): 23.5% | Average Tumor Volumes (Day 20 from inoculation): 938 mm^3 | Average Tumor Volumes (Day 22 from inoculation): 1086 mm^3 | Average Tumor Volumes (Day 25 from inoculation): 1216 mm^3
